Measurements taken from paper PMC4821887, “Identification of chemicals that mimic transcriptional changes associated with autism, brain aging and neurodegeneration” (Nature Communications, 2016).

System: mouse cortical cultures
Experiment: RNA-seq differential expression (DESeq) against matched vehicle
Type: cell-based
Parameters: key to MeanFenamidone Bcl11b / MeanFenamidone Slc12a4 / MeanFenamidone Abca1 / MeanFenamidone Hmox1 / MeanFenamidone Il1rap / MeanFenamidone Cyba / MeanFenamidone Narf / MeanFenamidone Bnip3 / MeanFenamidone Amotl2 / MeanFenamidone Gad2 / MeanFenamidone Vsnl1 / MeanFenamidone Fam178a: DESeq mean of counts over RefSeq exons
Experimental: Figure 4 Cluster 2 chemicals alter expression of a common set of genes. […] RNA-seq was performed in quadruplicate after treating cortical cultures with fenamidone (10 μM) or pyraclostrobin (0.1 μM) for 24 h (n=3 biological replicates) and compared with matched vehicle controls using DESeq to detect differentially expressed genes, listed in Supplementary Data 4.
Cultures were treated with the non-cytotoxic dose of each chemical, by exchanging half of the original medium with chemicals at 2 × concentration in prewarmed feeding medium, on DIV 7 for 24 h in 12-well plates at a density of 5 × 10^5 cells per well. RNA was isolated using RNeasy plus mini kit (Cat. #74134, Qiagen). […]. Samples were further assessed for quality using either an Agilent Bioanalyzer 2100 or TapeStation 2200 to obtain a RIN. RIN values exceeding 7 were used for sequencing. RNA samples were used to generate and barcode complementary DNA libraries using the TruSeq RNA Library Preparation Kit at the UNC High Throughput Sequencing Facility. Pools of 24 multiplexed samples were sequenced per lane on an Illumina HiSeq 2500 using 50-bp paired-end reads.
RNA-seq reads were filtered using TagDust and aligned to the reference mouse genome (mm9) with TopHat using default parameters. Reads aligning to ribosomal RNA genes were removed. Transcript abundance was estimated by computing Reads per kilobase per million mapped reads (RPKM) using RefSeq gene models aggregated by gene symbol. For differential expression analyses, raw counts over RefSeq exons were used, and then were compared across samples using DESeq[62].

CSC1=N[C@@](C)(c2ccccc2)C(=O)N1Nc1ccccc1 [fenamidone]
Differentially expressed genes (DESeq) compared between the two fungicides (fenamidone 10 μM or pyraclostrobin 0.1 μM, 24 h): up- and downregulate a largely overlapping set of genes | MeanFenamidone (DESeq mean normalized counts) (gene 2810011L19Rik, Fenamidone, 4 reps, vs matched vehicle): 45.3905 | MeanFenamidone (gene 3632451O06Rik): 64.8489 | log2FoldChange (gene 3632451O06Rik): -1.594 | MeanFenamidone (gene 4931428F04Rik): 315.322 | log2FoldChange (gene 4931428F04Rik): -1.331 | MeanFenamidone (gene 4933426M11Rik): 495.966 | log2FoldChange (gene 4933426M11Rik): 1.2253 | MeanFenamidone 9930013L23Rik (gene 9930013L23Rik, DESeq mean, 4 reps): 645.322 | log2FoldChange 9930013L23Rik (gene 9930013L23Rik, vs vehicle, 4 reps): 2.2987 | MeanFenamidone AF357359 (gene AF357359, DESeq mean, 4 reps): 31.2414 | log2FoldChange AF357359 (gene AF357359, vs vehicle, 4 reps): -2.02 | MeanFenamidone Abca1 (gene Abca1, DESeq mean, 4 reps): 1327.24 | log2FoldChange Abca1 (gene Abca1, vs vehicle, 4 reps): 1.708 | MeanFenamidone Acadl (gene Acadl, DESeq mean, 4 reps): 174.046 | log2FoldChange Acadl (gene Acadl, vs vehicle, 4 reps): 2.185 | MeanFenamidone Acadvl (gene Acadvl, DESeq mean, 4 reps): 272.079 | log2FoldChange Acadvl (gene Acadvl, vs vehicle, 4 reps): 1.576 | MeanFenamidone Acsbg1 (gene Acsbg1, DESeq mean, 4 reps): 241.134 | log2FoldChange Acsbg1 (gene Acsbg1, vs vehicle, 4 reps): 1.737 | MeanFenamidone Acta2 (gene Acta2, DESeq mean, 4 reps): 2838.59 | log2FoldChange Acta2 (gene Acta2, vs vehicle, 4 reps): 3.4285 | MeanFenamidone Actn1 (gene Actn1, DESeq mean, 4 reps): 711.955 | log2FoldChange Actn1 (gene Actn1, vs vehicle, 4 reps): 2.284 | MeanFenamidone Adamts5 (gene Adamts5, DESeq mean, 4 reps): 85.7871 | log2FoldChange Adamts5 (gene Adamts5, vs vehicle, 4 reps): 2.142 | MeanFenamidone Adarb2 (gene Adarb2, DESeq mean, 4 reps): 8.295 | log2FoldChange Adarb2 (gene Adarb2, vs vehicle, 4 reps): -3.192 | MeanFenamidone Agap2 (gene Agap2, DESeq mean, 4 reps): 683.65 | log2FoldChange Agap2 (gene Agap2, vs vehicle, 4 reps): -1.416 | MeanFenamidone Ahnak (gene Ahnak, DESeq mean, 4 reps): 1224 | log2FoldChange Ahnak (gene Ahnak, vs vehicle, 4 reps): 2.684 | MeanFenamidone Ajuba (gene Ajuba, DESeq mean, 4 reps): 246.575 | log2FoldChange Ajuba (gene Ajuba, vs vehicle, 4 reps): 2.23 | MeanFenamidone (gene Akap2): 757.95 | log2FoldChange (gene Akap2): 1.126 | MeanFenamidone Aldh4a1 (gene Aldh4a1, DESeq mean, 4 reps): 305.431 | log2FoldChange Aldh4a1 (gene Aldh4a1, vs vehicle, 4 reps): 1.584 | MeanFenamidone Amotl1 (gene Amotl1, DESeq mean, 4 reps): 463.485 | log2FoldChange Amotl1 (gene Amotl1, vs vehicle, 4 reps): 1.802 | MeanFenamidone Amotl2 (gene Amotl2, DESeq mean, 4 reps): 666.038 | log2FoldChange Amotl2 (gene Amotl2, vs vehicle, 4 reps): 1.759 | MeanFenamidone (gene Anxa2): 244.58 | log2FoldChange (gene Anxa2): 2.151 | MeanFenamidone Anxa3 (gene Anxa3, DESeq mean, 4 reps): 244.534 | log2FoldChange Anxa3 (gene Anxa3, vs vehicle, 4 reps): 3.475 | MeanFenamidone Arhgap18 (gene Arhgap18, DESeq mean, 4 reps): 128.165 | log2FoldChange Arhgap18 (gene Arhgap18, vs vehicle, 4 reps): 1.989 | MeanFenamidone (gene Arhgdig): 118.591 | log2FoldChange (gene Arhgdig): -1.355 | MeanFenamidone (gene Arhgef40): 160.321 | log2FoldChange (gene Arhgef40): 1.457 | MeanFenamidone Asah1 (gene Asah1, DESeq mean, 4 reps): 348.017 | log2FoldChange Asah1 (gene Asah1, vs vehicle, 4 reps): 1.772 | MeanFenamidone Ass1 (gene Ass1, DESeq mean, 4 reps): 83.2354 | log2FoldChange Ass1 (gene Ass1, vs vehicle, 4 reps): 3.013 | MeanFenamidone Atf3 (gene Atf3, DESeq mean, 4 reps): 64.246 | log2FoldChange Atf3 (gene Atf3, vs vehicle, 4 reps): 2.3746 | MeanFenamidone Atf5 (gene Atf5, DESeq mean, 4 reps): 765.032 | log2FoldChange Atf5 (gene Atf5, vs vehicle, 4 reps): 1.876 | MeanFenamidone Atl1 (gene Atl1, DESeq mean, 4 reps): 97.9838 | log2FoldChange Atl1 (gene Atl1, vs vehicle, 4 reps): -1.537 | MeanFenamidone Axl (gene Axl, DESeq mean, 4 reps): 322.064 | log2FoldChange Axl (gene Axl, vs vehicle, 4 reps): 2.208 | MeanFenamidone (gene Bak1): 236.594 | log2FoldChange (gene Bak1): 1.306 | MeanFenamidone Bcl11b (gene Bcl11b, DESeq mean, 4 reps): 202.325 | log2FoldChange Bcl11b (gene Bcl11b, vs vehicle, 4 reps): -1.501 | MeanFenamidone Bhlhe41 (gene Bhlhe41, DESeq mean, 4 reps): 115.206 | log2FoldChange Bhlhe41 (gene Bhlhe41, vs vehicle, 4 reps): 2.168 | MeanFenamidone (gene Bmp1): 153.886 | log2FoldChange (gene Bmp1): 1.3853 | MeanFenamidone Bnip3 (gene Bnip3, DESeq mean, 4 reps): 102.453 | log2FoldChange Bnip3 (gene Bnip3, vs vehicle, 4 reps): -1.924 | MeanFenamidone (gene Bnip3l): 236.54 | log2FoldChange (gene Bnip3l): -1.119 | MeanFenamidone (gene Bsn): 443.744 | log2FoldChange (gene Bsn): -1.148 | MeanFenamidone (gene Cad): 202.997 | log2FoldChange (gene Cad): 1.187 | MeanFenamidone (gene Cadps): 260.197 | log2FoldChange (gene Cadps): -1.6246 | MeanFenamidone Cald1 (gene Cald1, DESeq mean, 4 reps): 1843.23 | log2FoldChange Cald1 (gene Cald1, vs vehicle, 4 reps): 1.947 | MeanFenamidone (gene Calm2): 809.868 | log2FoldChange (gene Calm2): -1.097 | MeanFenamidone Camk2a (gene Camk2a, DESeq mean, 4 reps): 319.844 | log2FoldChange Camk2a (gene Camk2a, vs vehicle, 4 reps): -1.451 | MeanFenamidone (gene Camk2n1): 296.66 | log2FoldChange (gene Camk2n1): -1.023 | MeanFenamidone Camk4 (gene Camk4, DESeq mean, 4 reps): 490.278 | log2FoldChange Camk4 (gene Camk4, vs vehicle, 4 reps): -1.593 | MeanFenamidone Camta1 (gene Camta1, DESeq mean, 4 reps): 338.624 | log2FoldChange Camta1 (gene Camta1, vs vehicle, 4 reps): -1.578 | MeanFenamidone Caskin2 (gene Caskin2, DESeq mean, 4 reps): 130.097 | log2FoldChange Caskin2 (gene Caskin2, vs vehicle, 4 reps): 2.297 | MeanFenamidone Ccdc141 (gene Ccdc141, DESeq mean, 4 reps): 72.7622 | log2FoldChange Ccdc141 (gene Ccdc141, vs vehicle, 4 reps): 2.666 | MeanFenamidone Ccnd3 (gene Ccnd3, DESeq mean, 4 reps): 321.074 | log2FoldChange Ccnd3 (gene Ccnd3, vs vehicle, 4 reps): 1.783 | MeanFenamidone Ccng1 (gene Ccng1, DESeq mean, 4 reps): 4010.45 | log2FoldChange Ccng1 (gene Ccng1, vs vehicle, 4 reps): 1.5262 | MeanFenamidone Cd63 (gene Cd63, DESeq mean, 4 reps): 136.407 | log2FoldChange Cd63 (gene Cd63, vs vehicle, 4 reps): 2.342 | MeanFenamidone Cd68 (gene Cd68, DESeq mean, 4 reps): 127.152 | log2FoldChange Cd68 (gene Cd68, vs vehicle, 4 reps): 2.839 | MeanFenamidone Cd151 (gene Cd151, DESeq mean, 4 reps): 686.042 | log2FoldChange Cd151 (gene Cd151, vs vehicle, 4 reps): 1.998 | MeanFenamidone Cdc42ep1 (gene Cdc42ep1, DESeq mean, 4 reps): 242.014 | log2FoldChange Cdc42ep1 (gene Cdc42ep1, vs vehicle, 4 reps): 2.019 | MeanFenamidone Cdkl2 (gene Cdkl2, DESeq mean, 4 reps): 148.718 | log2FoldChange Cdkl2 (gene Cdkl2, vs vehicle, 4 reps): -1.498 | MeanFenamidone Cdkn1a (gene Cdkn1a, DESeq mean, 4 reps): 1626.53 | log2FoldChange Cdkn1a (gene Cdkn1a, vs vehicle, 4 reps): 1.6849 | MeanFenamidone (gene Cercam): 80.354 | log2FoldChange (gene Cercam): 1.731 | MeanFenamidone (gene Chga): 168.446 | log2FoldChange (gene Chga): -1.21 | MeanFenamidone (gene Chl1): 1683.83 | log2FoldChange (gene Chl1): -1.224 | MeanFenamidone (gene Ckb): 1311.75 | log2FoldChange (gene Ckb): 1.6 | MeanFenamidone (gene Clec7a): 31.0423 | log2FoldChange (gene Clec7a): 2.927 | MeanFenamidone Cln5 (gene Cln5, DESeq mean, 4 reps): 194.081 | log2FoldChange Cln5 (gene Cln5, vs vehicle, 4 reps): 2.017 | MeanFenamidone Cnr1 (gene Cnr1, DESeq mean, 4 reps): 426.988 | log2FoldChange Cnr1 (gene Cnr1, vs vehicle, 4 reps): -1.344 | MeanFenamidone Col4a5 (gene Col4a5, DESeq mean, 4 reps): 502.413 | log2FoldChange Col4a5 (gene Col4a5, vs vehicle, 4 reps): 2.312 | MeanFenamidone (gene Col4a6): 110.458 | log2FoldChange (gene Col4a6): 2.156 | MeanFenamidone Col12a1 (gene Col12a1, DESeq mean, 4 reps): 444.559 | log2FoldChange Col12a1 (gene Col12a1, vs vehicle, 4 reps): 2.385 | MeanFenamidone Cpeb1 (gene Cpeb1, DESeq mean, 4 reps): 116.043 | log2FoldChange Cpeb1 (gene Cpeb1, vs vehicle, 4 reps): 2.171 | MeanFenamidone Csf1 (gene Csf1, DESeq mean, 4 reps): 1349.7 | log2FoldChange Csf1 (gene Csf1, vs vehicle, 4 reps): 2.395 | MeanFenamidone Csrnp3 (gene Csrnp3, DESeq mean, 4 reps): 419.96 | log2FoldChange Csrnp3 (gene Csrnp3, vs vehicle, 4 reps): -1.31 | MeanFenamidone Ctnna1 (gene Ctnna1, DESeq mean, 4 reps): 850.825 | log2FoldChange Ctnna1 (gene Ctnna1, vs vehicle, 4 reps): 1.929 | MeanFenamidone Ctsd (gene Ctsd, DESeq mean, 4 reps): 3727.98 | log2FoldChange Ctsd (gene Ctsd, vs vehicle, 4 reps): 1.609 | MeanFenamidone Ctsl (gene Ctsl, DESeq mean, 4 reps): 1179.87 | log2FoldChange Ctsl (gene Ctsl, vs vehicle, 4 reps): 1.543 | MeanFenamidone Cyba (gene Cyba, DESeq mean, 4 reps): 37.6864 | log2FoldChange Cyba (gene Cyba, vs vehicle, 4 reps): 3.26 | MeanFenamidone Cyr61 (gene Cyr61, DESeq mean, 4 reps): 1421.12 | log2FoldChange Cyr61 (gene Cyr61, vs vehicle, 4 reps): 2.66 | MeanFenamidone D130043K22Rik (gene D130043K22Rik, DESeq mean, 4 reps): 33.8314 | log2FoldChange D130043K22Rik (gene D130043K22Rik, vs vehicle, 4 reps): -1.82 | MeanFenamidone Daam2 (gene Daam2, DESeq mean, 4 reps): 263.262 | log2FoldChange Daam2 (gene Daam2, vs vehicle, 4 reps): 1.9757 | MeanFenamidone (gene Darc): 104.469 | log2FoldChange (gene Darc): -1.472
